Test results as given in patent US4312861A, “Pharmaceutical compositions containing N-alkyl-N-(nuclearly-substituted) benzylamines having vasotonia-regulating activity” (Hoechst Aktiengesellschaft, priority 1974, dated 1982).

Legend:
[1] = tested on: isolated guinea-pig heart; test: Relative coronary blood-flow change in isolated guinea-pig heart (Langendorff)
Description: (4) Relative coronary blood-flow change in an isolated guinea-pig heart.
The tests were carried out according to the method of Langendorff (Pflugers Archiv. 61 (1895), page 219).
In Table 5, the change in coronary blood flow after administration of various quantities of the test substance is compared with that after administration of the known compounds heptaminol and Aescin sodium salt.

isolated portal vein = test: Isolated rat's portal vein (Berti), increase in tonus
Description: (2) Isolated rat's portal vein
The tests on the rat's portal vein, an organ with its own rhythm, were performed according to the method of Berti et al (Arch. int. Pharmacodyn. 184 (1970), page 328). In Table 4, the increase in tonus at various adrenalin concentrations is given in milligrams. As a comparison, the values for the known substance heptaminol (=6-amino-2-methylheptane-2-ol) are also given.

perfused rabbit ear = test: Blood-flow change in perfused isolated rabbit ear, vaso-dilator activity (Ringer-Norfenefrin solution)
Description: (3) Blood-flow change in an isolated rabbit ear
The tests were carried out according to Krakow-Pissemski (Pflugers Archiv 151 (1913), page 583 and 156 (1914), page 426). In Table 5a the estimated values of the vaso-constrictor activity in Ringer solutions of varying concentrations are given and in Table 5b values for vasodilatory activity in Ringer-Norfenefrin solutions of varying concentrations are given. As a comparison, the values obtained with the known preparation aescin sodium are given.

[2] = tested on: permeability of the capillaries; test: Histamine rash test (modified Halpern), capillary permeability; type: in vivo; conditions: 30 minutes before histamine
Description: The test according to Halpern (Presse medicale 65 (1949), page 949) was used in modified form. The suppressive effect of the compounds according to the invention on the permeability of the capillaries was tested. The blue coloration induced by intravenous administration of trypan blue at two intracutaneous histamine injection points per animal, (trypan blue administered 2 minutes before the histamine), was estimated according to the following scale of values:
indications of blue coloration
clear blue coloration =4
stong blue coloration =6
The preceding evaluation was made from the combined effect at the two injection points.
The test substances were administered i.p. 30 minutes before the histamine injection.

[3] = Toxicity in the mouse (Litchfield and Wilcoxon); type: in vivo; conditions: mouse, in vivo
Description: (6) Toxicity in the mouse
Toxicity was determined according to Litchfield and Wilcoxon (J. Pharmacol. exp. Ther. 97 (1949), page 399) in the mouse. In comparison, the values with the known substance aescin sodium salt were determined. Comparative tests with 0.1% solution, of venous and optical compatibility on the rabbit yielded similar results.

[4] = tested on: carrageenin oedema in the rat paw; test: Suppression of carrageenin oedema in the rat paw (Siegmund); type: in vivo; conditions: 100 mg/kg p.o.; 3 h p.a.
Description: (7) Suppression of carrageenin oedema in the rat paw
The inflammation-reducing and anti-oedematous effects on carrageenin and serotonin oedemas in the rat paw were studied according to Siegmund et al (Proc. Soc. exp. Biol. Med. 95 (1957), page 729). The values are given as percentages, based on the values obtained in control tests using a dummy procedure. In this way, the antiphlogistic activity of the substances according to the invention was tested.

[5] = tested on: writhing movements in the mouse; test: Writhing test (Winter); type: in vivo; conditions: 50 mg/kg p.o.
Source text: The analgesic activity of the compounds according to the invention were studied by the method of Winter et al (Proc. Soc. exp. Biol. Med, 111 (1962), page 544), in which the suppression of writhing movements in the mouse was observed.

[6] = 10 μg (first figure where two are given)
[7] = 30 μg (first figure where two are given)
[8] = 100 μg (first figure where two are given)

Row | SMILES | Relative change in coronary blood flow [1, 6] | Relative change in coronary blood flow [1, 7] | Relative change in blood flow, vaso-dilator activity (perfused rabbit ear; 3 × 10^-5 g/ml) | LD50 ([3]; ip) | also measured
1 | CCCCCC(C)NCc1c(C)cc(C(C)(C)C)cc1C (stereo not drawn) [compound 5] | +118 | +280 |  |  | 
2 | CCCCCCOCCCNCc1c(C)cc(C)cc1C [compound 22] |  | +109 | 0 | 25 to 50 mg/kg | Increase in tonus, isolated rat's portal vein (isolated portal vein; 10^-4 g/ml): +271 milligrams; Increase in tonus, isolated rat's portal vein (isolated portal vein; 10^-5 g/ml): +225 milligrams; Increase in tonus, isolated rat's portal vein (isolated portal vein; 10^-6 g/ml): +65 milligrams; Increase in vasotonus compared with heptaminol (isolated portal vein; in words): distinctly stronger increase in vasotonus than the comparison substance heptaminol; Histamine rash test, blue coloration score (0 = none, 2 = indications, 4 = clear, 6 = strong) ([2]; 1.0 mg/kg i.p.): 2.6; Histamine rash test, blue coloration score (0 = none, 2 = indications, 4 = clear, 6 = strong) ([2]; 3.0 mg/kg i.p.): 1.3
3 | CCCCCC(C)NCc1cccc(Br)c1 (stereo not drawn) [compound 11] |  |  |  | 100 to 250 mg/kg | 
4 | CCCCCC(C)N(Cc1c(C)cc(C)cc1C)CP(C)(C)=O (stereo not drawn) [compound 30] | +158 | +211 | +67 | 100 to 250 mg/kg | Relative change in blood flow, vaso-dilator activity (perfused rabbit ear; 10^-5 g/ml): +79; Relative change in coronary blood flow [1, 8]: +232
5 | CCCCCC(C)NCc1c(C)cc(C)cc1C (single isomer, unassigned) [compound 3] | +14 | +19 | +38 | 50 to 100 mg/kg | Relative change in blood flow, vaso-dilator activity (perfused rabbit ear; 10^-5 g/ml): +105; Relative change in blood flow, vaso-dilator activity (perfused rabbit ear; 10^-6 g/ml): +43; Relative change in blood flow, vaso-dilator activity (perfused rabbit ear; 10^-7 g/ml): +3; Relative change in coronary blood flow [1, 8]: +30; Histamine rash test, blue coloration score (0 = none, 2 = indications, 4 = clear, 6 = strong) ([2]; 1.0 mg/kg i.p.): 2.5; Histamine rash test, blue coloration score (0 = none, 2 = indications, 4 = clear, 6 = strong) ([2]; 3.0 mg/kg i.p.): 2.5; LD50 ([3]; iv): 10.8 mg/kg; Suppression of carrageenin oedema in the paw (antiphlogistic activity) [4]: 11%
6 | CC(N)CCCC(C)(C)O (stereo not drawn) [Heptaminol, 6-amino-2-methylheptane-2-ol, reference compound] | 0 | 0 |  |  | Increase in tonus, isolated rat's portal vein (isolated portal vein; 10^-4 g/ml): +47 milligrams; Increase in tonus, isolated rat's portal vein (isolated portal vein; 10^-5 g/ml): +9 milligrams; Increase in tonus, isolated rat's portal vein (isolated portal vein; 10^-6 g/ml): +9 milligrams; Effect on vessels of the tonicised rabbit ear (perfused rabbit ear; in words): intensifies the Ringer-Norfenefrin constriction in the rabbit ear; Control test with heptaminol, rabbit ear (footnote ++) (perfused rabbit ear; mark in 10^-4 g/ml line): constriction; Relative change in coronary blood flow [1, 8]: 0; Effect on coronary vessels of the guinea-pig heart ([1]; in words): no effect on the guinea-pig heart
7 | COCCCNCc1c(C)cc(C)cc1C [compound 20] |  |  | +30 | 50 to 100 mg/kg | Relative change in blood flow, vaso-dilator activity (perfused rabbit ear; 10^-4 g/ml): +131; Relative change in blood flow, vaso-dilator activity (perfused rabbit ear; 10^-5 g/ml): +4; Relative change in blood flow, vaso-dilator activity (perfused rabbit ear; 10^-6 g/ml): +12
8 | CCCCCC(C)NCc1ccc(Cl)cc1 (single isomer, unassigned) [compound 8] |  |  | +66 | 25 to 100 mg/kg | Relative change in blood flow, vaso-dilator activity (perfused rabbit ear; 10^-6 g/ml): +3; Suppression of writhing movements [5]: 15%
9 | CCCCCC(C)NCc1cc(C(C)(C)C)ccc1C (stereo not drawn) [compound 6] | +129 | +187 |  |  | 
10 | CCOCCCNCc1c(C)cc(C)cc1C [compound 21] | +22 | +23 |  | 50 to 100 mg/kg | 
11 | CCCCCC(C)NCc1c(Cl)cccc1Cl (stereo not drawn) [compound 10] | +33 |  |  |  | 
12 | CCCCCCCNCc1c(C)cc(C)cc1C [compound 16] | +55 | +61 |  | 50 to 100 mg/kg | 
13 | CCCCCCCCCNCc1c(C)cc(C)cc1C [compound 18] |  |  |  | 50 to 100 mg/kg | 
14 | CCCCCCNCc1c(C)cc(C)cc1C [compound 15] |  | +68 |  | 50 to 100 mg/kg | Relative change in coronary blood flow, second figure after slash ([1]; 30 μg): -21; Relative change in coronary blood flow, second figure after slash ([1]; 100 μg): -17; Relative change in coronary blood flow [1, 8]: +85
